Data as given in patent US6458766B1, “Halovir, an antiviral marine natural product, and derivatives thereof” (The Regents of the University of California, priority 1998, dated 2002).
Like-named read-outs stand apart in the source and are kept apart here. Non-standard residues stand in square brackets, D forms with d. Residues, ends and D or L forms follow the SMILES beside them. *: point of attachment. Myristoyl = CCCCCCCCCCCCCC(=O)*; Hyp = O=C(O)[CH]1C[CH](O)CN1; Leu(ol) = CC(C)C[CH](N)CO; X1 = CC(=O)OCC(CC(C)C)N*; Aib = CC(C)(N)C(=O)O

Experiments:
[1] = system: HSV-1; assay: MTT assay for antiviral activity against HSV-1 in Vero cells; assay type: cell-based, Herpes simplex virus; conditions: for antiviral activity against HSV-1: pure compounds from C18 HPLC of active fractions; for cells subjected to infection protected: test concentration 2.5 μg/mL, Vero cells, 50 pfu virus, five days incubation
Procedure: Antiviral activity of the halovirs was determined in vitro against the. HSV-I by an MTT assay (Hitoshi Takeuchi, An application of tetrazolium (MTT) calorimetric assay for screening of anti-herpes simplex virus compounds, Journal of Virological Methods, 33 (1991) 61-71), modified as follows. Vero cells were plated at a concentration of 10,000 cells/well in 100 μL of minimum essential medium (MEM) containing 5% fetal bovine serum (FBS) in 96-well plates. The cells were incubated overnight at 37° C. and 5% CO2. The media was removed by aspiration, and 100 μL of phosphate buffered saline (PBS) was added to each well and then aspirated. The wells were treated with 100 μL of MEM containing 50 plaque forming units (pfu) of virus and incubated for one hour. Each well was then overlayed with 100 μL of media containing 2% FBS and serial dilutions of an appropriate halovir solution. The halovir solution was previously prepared by dissolving the halovir in DMSO. After incubation for five days, each well was treated with 20 μL of a solution of 10 mg/mL of MTT in PBS. […] The media was carefully aspirated, and 100 μL of acidified isopropanol was added to dissolve any formazan produced. Acidified isopropanol solution is prepared by adding 50 mL Triton X100 and 2 mL concentrated HCL to 450 mL isopropanol. The optical density of the wells at 550 nm was determined using an ELISA plate reader. The amount of formazan present is directly proportional to the number of surviving cells in a given well. The amount of formazan were spectrophotometrically measured in wells with no antiviral agent and virus to establish a quantitative standard for 100% cell survival. Similarly wells with only virus were measured and used to establish a quantitative standard for 0% cell survival. At a test concentration of 2.5 μg/mL, Halovirs A, B, C, and D protected 50%, 40%, 33%, and 55%, respectively, of the cells subjected to infection.

[2] = system: HSV-1; assay type: cell-based, Herpes simplex virus
Procedure: Four experimental solutions were prepared.
Solution 1: Viral Inactivation
HSV-1 was diluted to 50,000 pfu/ml in 1.35 mL MEM with 0% Fetal Bovine Serum (0% MEM). This was treated with 8.2 μL of a solution of Halovir A dissolved in DMSO at a concentration of 25 mg/mL.
Solution 2: DMSO Inactivation Control
Solution 2 was prepared in an identical manner as solution 1, except that pure DMSO was added to the viral suspension.
This experiment provides a baseline for 100% cell survival. Solution 3 was prepared with 1.35 mL 0% MEM with 8.2 μL DMSO.
Solution 4: Normal Assay Conditions
Virus was diluted in 1.36 mL 0% MEM to a final concentration of 50,000 pfu/mL. No DMSO or Halovir A was added.
All solutions were vortexed for 30 seconds and then shaken at ambient temperature for 2.5 hours. They were then vortexed for 30 seconds, and 100 μL of each was diluted with 9.9 mL of 0% MEM (100×dilution). The diluted solutions are herein referred to as solutions 1-4.
96-well microtiter plates were prepared with Vero cells overnight, washed with PBS, and aspirated as previously described. 100 μL of Solution 1 was added to each well of a microtiter plate containing cells. This was repeated for Solutions 2-4. The plates were incubated at 37° C. and 5% CO2. After one hour, experiment plates prepared with Solutions 1-3 were overlaid with 100 μL of 2% MEM. […]

SMILES: CCCCCCCCCCCCCC(=O)NC(C)(C)C(=O)N1CC(O)CC1C(=O)NC(CC(C)C)C(=O)NC(C(=O)NC(CCC(N)=O)C(=O)NC(CO)CC(C)C)C(C)C (stereo not drawn) [Halovir A, CH3(CH2)12C(O)-Aib-Hyp-Leu-Val-Gln-Leu(OH)] (Myristoyl-[Aib][Hyp]LVQ[Leu(ol)]; configuration not given here)
- antiviral activity against HSV-1 [1]: potent antiviral activity
- cells subjected to infection protected [1]: 50%
- mean optical density at 550 nm (OD) ([2]; Solution 1: HSV-1 treated with Halovir A for 2.5 hours, 100x dilution, then added to Vero cells, mean of 80 wells): 1.18
- mean optical density at 550 nm (OD) ([2]; Solution 4: normal assay conditions, untreated virus, overlay with 2% MEM containing 1.5 μg/mL Halovir A after one hour): 0.32

SMILES: CCCCCCCCCCCCCC(=O)NC(C)(C)C(=O)N1CC(O)CC1C(=O)NC(CC(C)C)C(=O)NC(C)C(=O)NC(CCC(N)=O)C(=O)NC(CO)CC(C)C (stereo not drawn) [Halovir B, CH3(CH2)12C(O)-Aib-Hyp-Leu-Ala-Gln-Leu(OH)] (Myristoyl-[Aib][Hyp]LAQ[Leu(ol)]; configuration not given here)
- antiviral activity against HSV-1 [1]: potent antiviral activity
- cells subjected to infection protected [1]: 40%

SMILES: CCCCCCCCCCCCCC(=O)NC(C)(C)C(=O)N1CCCC1C(=O)NC(CC(C)C)C(=O)NC(C(=O)NC(CCC(N)=O)C(=O)NC(CO)CC(C)C)C(C)C (stereo not drawn) [Halovir C, CH3(CH2)12C(O)-Aib-Pro-Leu-Val-Gln-Leu(OH)] (Myristoyl-[Aib]PLVQ[Leu(ol)]; configuration not given here)
- antiviral activity against HSV-1 [1]: potent antiviral activity
- cells subjected to infection protected [1]: 33%

SMILES: CCCCCCCCCCCCCC(=O)NC(C)(C)C(=O)N1CC(OC(C)=O)CC1C(=O)NC(CC(C)C)C(=O)NC(C(=O)NC(CCC(N)=O)C(=O)NC(COC(C)=O)CC(C)C)C(C)C (stereo not drawn) [Halovir D, CH3(CH2)12C(O)-Aib-Hyp(OAc)-Leu-Val-Gln-Leu(OAc)] (Myristoyl-[Aib][Hyp](Ac)LVQ-X1; configuration not given here)
- cells subjected to infection protected [1]: 55%
